Each block holds one molecule with its values, some of them ahead of it.
How the values were obtained:
[1] = tested on: p53 monomer (L344P) mutant; experiment: Recruitment (enrichment index) of p53 monomer into designed peptide droplets; set-up: species or system human
Description: (§1) We prepared p53 tetramer, dimer, and monomer mutants, as described previously[8],[37],[50]. For the p53 tetramer, a thermostable and cysteine-modified human p53 mutant (C124A, C135V, C141V, W146Y, C182S, V203A, R209P, C229Y, H233Y, Y234F, N235K, Y236F, T253V, N268D, C275A, C277A, and K292C) was used[50]. The dimer and monomer mutants of p53 corresponded to L344A and L344P of the tetramer sequence, respectively[8],[37]. These p53 mutants were expressed with a glutathione S-transferase (GST) tag in E. coli and purified after cleavage of the GST tag, as described previously[50],[51]. The oligomeric state of p53 mutants was confirmed using a gel filtration column (Superdex 200; GE Healthcare). p53 mutants were labeled with Atto488 (ATTO-TEC) or Alexa488 (Thermo Fisher) using maleimide chemistry and then purified using a heparin column (GE Healthcare). We prepared Alexa488-labeled FUS-MBP as described previously[37],[39].
(§2) Recruitment evaluations were performed following the method described in our previous studies[37],[41]. Solutions containing 0.9–1.8 mM designed peptides, 0.1 µM Alexa488-labeled p53 mutants or Alexa488, 25 mM HEPES, 0.5 mM EDTA, and 1 mM DTT at pH 7.0 were used. The solutions were then incubated at 22 °C for five minutes. The aforementioned microscope was used with HILO illumination. To prevent photo-bleaching of the fluorescent samples, we used a laser power of 0.15 mW. The images were acquired at 22 °C. Using the ImageJ software, we calculated the EI values of the individual droplets as follows:2 EI=Idroplet/Isolution, where Idroplet and Isolution represent the average fluorescence intensities of the individual droplets and solutions near the droplets with background substitution, respectively.

p53 tetramer = experiment: Recruitment (enrichment index) of p53 tetramer into designed peptide droplets; set-up: species or system human; conditions: no salt, pH 7.0
Description: as §1, §2

[2] = Phase separation of designed peptides by DIC and fluorescence microscopy; assay type: physicochemical; conditions: DIC microscopy; 0.9–1.8 mM peptide, 25 mM HEPES, 0.5 mM EDTA, pH 7.0, no salt, MPC polymer-coated coverslip, 20 or 22 °C
Experimental: Differential interference contrast (DIC) microscopy confirmed that these peptides (0.9–1.8 mM) underwent phase separation in 25 mM HEPES and 0.5 mM EDTA at pH 7.0 (Fig. 2B). To prevent the melting of clusters on the coverslip surface, 2-methacryloyloxyethyl phosphorylcholine (MPC) polymer coating was used[36],[37] (Supplementary Fig. S1). Samples were prepared by sonicating a 2 mM peptide solution or diluting the peptide solution from a 10 mM peptide stock after storage under freezing conditions. Four of the designed peptides, except DPp53N-GSGS-DPp53C2, formed μm-sized spherical clusters. Fluorescence microscopy confirmed the high concentration of peptides labeled with the fluorescent dye Alexa488 in the clusters (Fig. 2B). […] Cross-β structure was also supported by the observation of intrinsic fluorescence upon 400–440 nm excitation[40] (Supplementary Fig. S2). […]
(§3) The DIC and fluorescence modes of an inverted microscope (IX-73; Olympus, Tokyo, Japan) equipped with microscopic objectives (60 × and 10 ×) and a camera (DP74) were used, as described previously. […] DIC and fluorescence images were obtained at 20 or 22 °C. For intrinsic fluorescence measurements, the excitation and detection wavelengths were 440–440 nm and larger than 460 nm, respectively.

[3] = Cross-β structure detection with amyloid-sensitive probe Picogreen; assay type: physicochemical; conditions: Picogreen 25 µM, 25 mM HEPES, 0.5 mM EDTA, pH 7.0
Experimental: Differential interference contrast (DIC) microscopy confirmed that these peptides (0.9–1.8 mM) underwent phase separation in 25 mM HEPES and 0.5 mM EDTA at pH 7.0 (Fig. 2B). To prevent the melting of clusters on the coverslip surface, 2-methacryloyloxyethyl phosphorylcholine (MPC) polymer coating was used[36],[37] (Supplementary Fig. S1). Samples were prepared by sonicating a 2 mM peptide solution or diluting the peptide solution from a 10 mM peptide stock after storage under freezing conditions. Four of the designed peptides, except DPp53N-GSGS-DPp53C2, formed μm-sized spherical clusters. Fluorescence microscopy confirmed the high concentration of peptides labeled with the fluorescent dye Alexa488 in the clusters (Fig. 2B). […] Cross-β structure was also supported by the observation of intrinsic fluorescence upon 400–440 nm excitation[40] (Supplementary Fig. S2). Clusters of aromatic W residues in DPp53N-GSGS-DPp53C2 may lead to the formation of solid aggregates, which is consistent with the results of different systems[21],[34].
as §3, with “previously. We used the solution containing 0.9–1.8 mM designed peptide, 0.1 μM Alexa488-labeled peptide, 25 mM HEPES, and 0.5 mM EDTA at pH 7.0. To detect the cross-β structure, picogreen was added at 25 µM for DPp53N-GSGS-DPp53C2 or 2.5 µM for others instead of the Alexa488-labeled peptide.” for “previously.”
Fig. S8 Time course of cross-β structure formation of designed peptides in droplets monitored by DIC and fluorescence images. The fluorescence was detected corresponding to the amyloid marker Picogreen at 2.5 µM in a solution containing 0.9 mM designed peptides, 25 mM HEPES, and 0.5 mM EDTA at pH 7.0 and 22 °C.

[4] = Salt and 1,6-hexanediol dependence of droplet/aggregate formation (scattering at 350 nm, DIC); assay type: physicochemical; conditions: 1 mM peptide, 25 mM HEPES, 0.5 mM EDTA, pH 7.0, 22 °C; scattering at 350 nm and DIC
Experimental: We detected light scattering corresponding to the designed peptide droplets by measuring OD350 values using an absorbance spectrometer (NanoDrop One; Thermo Fisher).
(A, B) Effect of additives, 1,6-hexandiol (1,6-HD) and NaCl, on aggregate formation of DPp53N-GSGS-DPp53C2 was monitored as the scattering intensity observed at 350 nm (A) and via DIC images (B). The measurements were conducted in a solution containing 25 mM HEPES, 0.5 mM EDTA, and 1 mM DPp53N-GSGS-DPp53C2 in the presence or absence of additives at pH 7.0 and 22 °C.
Fig. S7 Designed peptide droplets are sensitive to salt concentration but not to 1,6-hexandiol. (A, B) Salt-concentration dependence of droplet formation of designed peptides monitored as the scattering intensity at 350 nm (A) and via DIC images (B). (C, D) Effect of 1,6-hexandiol on droplet formation of designed peptides monitored as the scattering intensity at 350 nm (C) and via DIC images (D). The measurements were performed in a solution containing 1 mM designed peptides, 25 mM HEPES, and 0.5 mM EDTA at pH 7.0 and 22 °C. In panels (A) and (C), the errors denote the standard errors of at least three measurements.

p53 dimer (L344A) mutant = experiment: Recruitment (enrichment index) of p53 dimer into designed peptide droplets; set-up: species or system human; conditions: (GGGS)3-linker versus GSGS-linker droplets; no salt, pH 7.0
Description: as §1
Recruitment evaluations were performed following the method described in our previous studies[37],[41]. […] Using the ImageJ software, we calculated the EI values of the individual droplets as follows:2 EI=Idroplet/Isolution, where Idroplet and Isolution represent the average fluorescence intensities of the individual droplets and solutions near the droplets with background substitution, respectively.

5-FAM-labeled DP_(p53N) = experiment: fluorescence polarisation; fluorescence anisotropy; non-labeled peptide titrated into 40 nM 5-FAM-labeled DP_(p53N); 25 mM HEPES, 0.5 mM EDTA, 2 mg/mL BSA, 2 mM Trolox, pH 7.0, 25 °C; one-to-one binding model

Molecule: RRRVVQRRRRGSGSDDDASQEDDD [DPp53N-GSGS-DPp53C1]
Enrichment index (EI) of p53 monomer (L344P) mutant in peptide droplets ([1]; 0.9–1.8 mM designed peptide, 0.1 µM Alexa488-labeled p53, 25 mM HEPES, 0.5 mM EDTA, 1 mM DTT, pH 7.0, 22 °C, ± standard error, SEM): 14.7 ± 0.5 | Decrease of average EI of p53 tetramer relative to p53 monomer (p53 tetramer; droplet interior regions, surface not included): 2.6 fold

Molecule: RRRVVQRRRRGGGSGGGSGGGSDDDDDDD [DPp53N-(GGGS)3-D7]
Decrease of average EI of p53 monomer mutant compared to the GSGS-linker peptide ([1]; (GGGS)3-linker versus GSGS-linker droplets, no salt, pH 7.0): 1.8 fold | Increase of average EI of p53 dimer mutant compared to the GSGS-linker peptide (p53 dimer (L344A) mutant): 3.3 fold | Increase of average EI of p53 tetramer compared to the GSGS-linker peptide (p53 tetramer; (GGGS)3-linker versus GSGS-linker droplets): 3.1 fold

Second part, led by results:

Picogreen fluorescence of clusters [3]: high intensity | Aggregate formation at high concentrations of salt and 1,6-hexanediol [4]: not significantly suppressed
Molecule: RRRVVQRRRRGSGSEDDDWWMWWD [DPp53N-GSGS-DPp53C2]
Cluster morphology (phase separation) [2]: non-spherical clusters that corresponded to solid aggregates

fold higher affinity than the DP (p53C)1 fragment for the DP (p53N) fragment (5-FAM-labeled DP_(p53N)): 2 fold
B1: GSGS-D7 (peptide)
peptide: GSGSDDDDDDD
